Data taken from paper PMC9505425, “Targeting of the Mitochondrial TET1 Protein by Pyrrolo[3,2-b]pyrrole Chelators” (International Journal of Molecular Sciences, 2022).
“And” between values parts separate entries of the source, which are not always exact repeats. Equal entries are not always repeated.

Assays:
Caov-3 cells = test: MTT cytotoxicity assay, Caov-3; format: cell-based, human
Summary of the method: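 Caov-3 ovarian adenocarcinoma cells, grown for 24 h after plating, were exposed for 48 h to compound at 0.1–20 μM with at most 1% DMSO. Viability was measured by MTT reduction (2 h, A570) relative to untreated cells. IC50 was the concentration inhibiting 50% of cell growth.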

[1] = MTT cytotoxicity assay, HF-P4; format: cell-based, human; conditions: human, HF-P4 normal human dermal fibroblasts, repeats, read-out: Cell viability %
Summary of the method: (§1)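 Cells seeded at 1.0 × 10^5 per well, grown 24 h, then exposed 48 h to compounds at 0.1–20 μM (DMSO ≤1%). MTT added for 2 h, formazan dissolved in DMSO, absorbance read at 570 nm. IC50 calculated relative to untreated cells (100%).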

HF-P4 cells = test: MTT cytotoxicity assay, HF-P4; format: cell-based, human; conditions: 48 h; for Cell viability %: repeats
Summary of the method: as §1

BT-20 cells = test: MTT cytotoxicity assay, BT-20; format: cell-based, human
Summary of the method: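 BT-20 human breast cells seeded 24 h, then treated 48 h with compound at 0.1–20 μM (DMSO below 1%). Viability by MTT (2 h, formazan in DMSO, A570) against untreated cells as 100%; IC50 from four replicates per test, three independent repeats.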

SMILES: COc1cccc(/C=N/NC(=O)c2ccc(-c3cc4c(cc(-c5ccc(C(=O)N/N=C/c6cccc(OC)c6O)cc5)n4-c4ccc(C)cc4)n3-c3ccc(C)cc3)cc2)c1O [Compound 5]
- Cell viability % (Caov-3 cells; Caov-3, 100 nM, 48 h, repeats, 0.1 µM): 124.7159% and 131.0561% and 82.4%
- Cell viability % (Caov-3 cells; Caov-3, 500 nM, 48 h, repeats, 0.5 µM): 90.56% and 116.6807% and 137.4211%
- Cell viability % (Caov-3 cells; Caov-3, 750 nM, 48 h, repeats, 0.75 µM): 97.72% and 117.0859% and 120.9681%
- Cell viability % (Caov-3 cells; Caov-3, 1 uM, 48 h, repeats, 1 µM): 115.5595% and 95.48% and 128.3145%
- Cell viability % (Caov-3 cells; Caov-3, 2.5 uM, 48 h, repeats, 2.5 µM): 106.339% and 69.34% and 79.185%
- Cell viability % (Caov-3 cells; Caov-3, 5 uM, 48 h, repeats, 5 µM): 81.63% and 70.92%
- Cell viability % (Caov-3 cells; Caov-3, 7.5 uM, 48 h, repeats, 7.5 µM): 49.35% and 63.65%
- Cell viability % (Caov-3 cells; Caov-3, 10 uM, 48 h, repeats, 10 µM): 41.31% and 47.33%
- Cell viability % (Caov-3 cells; Caov-3, 15 uM, 48 h, repeats, 15 µM): 34.22% and 36.44%
- Cell viability % (Caov-3 cells; Caov-3, 20 uM, 48 h, repeats, 20 µM): 16.1941% and 14.83%
- viability at 5 µM (Caov-3 cells; Homo sapiens, Caov-3, 48 h, Caov-3, 5 uM, repeats, read-out: Cell viability %): 83.6%
- viability at 7.5 µM (Caov-3 cells; Homo sapiens, Caov-3, 48 h, Caov-3, 7.5 uM, repeats, read-out: Cell viability %): 62.5%
- viability at 10 µM (Caov-3 cells; Homo sapiens, Caov-3, 48 h, Caov-3, 10 uM, repeats, read-out: Cell viability %): 29.5%
- viability at 15 µM (Caov-3 cells; Homo sapiens, Caov-3, 48 h, Caov-3, 15 uM, repeats, read-out: Cell viability %): 31.5%
- viability at 20 µM (Caov-3 cells; Homo sapiens, Caov-3, 48 h, Caov-3, 20 uM, repeats, read-out: Cell viability %): 17.9%
- IC50 (Caov-3 cells; Homo sapiens, Caov-3, MTT, 48 h): 9.48 µM
- melting point: 321 to 322 °C
- viability at 48 h, 0.1 µM ([1]; HF-P4, 100 nM): 104%
- viability at 48 h, 0.5 µM ([1]; HF-P4, 500 nM): 105%
- viability at 48 h, 0.75 µM ([1]; HF-P4, 750 nM): 84.2%
- viability at 48 h, 1 µM ([1]; HF-P4, 1 uM): 105%
- viability at 48 h, 2.5 µM ([1]; HF-P4, 2.5 uM): 96.8%
- viability at 48 h, 5 µM ([1]; HF-P4, 5 uM): 84%
- viability at 48 h, 7.5 µM ([1]; HF-P4, 7.5 uM): 74.5%
- viability at 48 h, 10 µM ([1]; HF-P4, 10 uM): 76.7%
- viability at 48 h, 15 µM ([1]; HF-P4, 15 uM): 63%
- viability at 48 h, 20 µM ([1]; HF-P4, 20 uM): 52.2%
- Cell viability % (HF-P4 cells; HF-P4, 100 nM, 0.1 µM): 105.3072% and 105.0738%
- Cell viability % (HF-P4 cells; HF-P4, 500 nM, 0.5 µM): 98.21% and 101.0423%
- Cell viability % (HF-P4 cells; HF-P4, 750 nM, 0.75 µM): 95.79% and 102.0649%
- Cell viability % (HF-P4 cells; HF-P4, 1 uM, 1 µM): 86.8% and 100.59%
- Cell viability % (HF-P4 cells; HF-P4, 2.5 uM, 2.5 µM): 91.7616% and 90.46%
- Cell viability % (HF-P4 cells; HF-P4, 5 uM, 5 µM): 65.3% and 72.65%
- Cell viability % (HF-P4 cells; HF-P4, 7.5 uM, 7.5 µM): 71.79% and 64.35%
- Cell viability % (HF-P4 cells; HF-P4, 10 uM, 10 µM): 58.3808% and 56.93%
- Cell viability % (HF-P4 cells; HF-P4, 15 uM, 15 µM): 60.12% and 45.66%
- Cell viability % (HF-P4 cells; HF-P4, 20 uM, 20 µM): 55.03% and 53.24%
- IC50 (HF-P4 cells; Homo sapiens, MTT): > 20 µM
- Cell viability % (BT-20 cells; BT-20, 100 nM, 48 h, repeats, 0.1 µM): 94.73% and 89.5899%
- Cell viability % (BT-20 cells; BT-20, 500 nM, 48 h, repeats, 0.5 µM): 90.47% and 107.0261%
- Cell viability % (BT-20 cells; BT-20, 750 nM, 48 h, repeats, 0.75 µM): 86.64% and 81% and 102.8391%
- Cell viability % (BT-20 cells; BT-20, 1 uM, 48 h, repeats, 1 µM): 92.1% and 100.302%
- Cell viability % (BT-20 cells; BT-20, 2.5 uM, 48 h, repeats, 2.5 µM): 80.3% and 100.57% and 104.0262%
- Cell viability % (BT-20 cells; BT-20, 5 uM, 48 h, repeats, 5 µM): 60.99% and 87.49% and 89.1%
- Cell viability % (BT-20 cells; BT-20, 7.5 uM, 48 h, repeats, 7.5 µM): 52.633% and 55.7373%
- Cell viability % (BT-20 cells; BT-20, 10 uM, 48 h, repeats, 10 µM): 52.47% and 37.54%
- Cell viability % (BT-20 cells; BT-20, 15 uM, 48 h, repeats, 15 µM): 28.45% and 34.27%
- Cell viability % (BT-20 cells; BT-20, 20 uM, 48 h, repeats, 20 µM): 18.3694% and 26.24%
- viability at 0.1 µM (BT-20 cells; Homo sapiens, BT-20, 48 h, BT-20, 100 nM, repeats, read-out: Cell viability %): 86%
- viability at 0.5 µM (BT-20 cells; Homo sapiens, BT-20, 48 h, BT-20, 500 nM, repeats, read-out: Cell viability %): 97.4%
- viability at 1 µM (BT-20 cells; Homo sapiens, BT-20, 48 h, BT-20, 1 uM, repeats, read-out: Cell viability %): 99%
- viability at 7.5 µM (BT-20 cells; Homo sapiens, BT-20, 48 h, BT-20, 7.5 uM, repeats, read-out: Cell viability %): 45.7%
- viability at 10 µM (BT-20 cells; Homo sapiens, BT-20, 48 h, BT-20, 10 uM, repeats, read-out: Cell viability %): 41.3%
- viability at 15 µM (BT-20 cells; Homo sapiens, BT-20, 48 h, BT-20, 15 uM, repeats, read-out: Cell viability %): 28.5%
- viability at 20 µM (BT-20 cells; Homo sapiens, BT-20, 48 h, BT-20, 20 uM, repeats, read-out: Cell viability %): 20.9%
- IC50 (BT-20 cells; Homo sapiens, BT-20, MTT, 48 h): 11.2 µM
